From publication PMC11583740, “Genotype-specific effects of elamipretide in patients with primary mitochondrial myopathy: a post hoc analysis of the MMPOWER-3 trial” (Orphanet Journal of Rare Diseases, 2024)

Key:
[1] = test system: adult patients with primary mitochondrial myopathy (PMM); test: Six-Minute Walk Test (6MWT) in the MMPOWER-3 Phase 3 trial, post hoc analysis by genotype; assay type: in vivo, human
Procedure: Full details of MMPOWER-3 have been previously described. In brief, MMPOWER-3 was a 24-week, randomized (1:1), double-blind, parallel-group, placebo-controlled clinical trial for adult patients with PMM, in which subjects received elamipretide 40 mg subcutaneously once daily or placebo [6]. In the original analysis of MMPOWER-3, subjects were stratified by the type of pathogenic DNA variant (nDNA vs mtDNA) determined to be the primary cause of PMM as approved by the adjudication committee. Pathogenic DNA variants causing PMM were subclassified as causing mtDNA or nDNA disorders. The prespecified exploratory analysis was conducted to further examine the effects of elamipretide on the change from baseline to week 24 in the 6MWT by genetic subgroups. Subject demographics at baseline have been previously published in detail.
In the original analysis of MMPOWER-3, the efficacy of elamipretide was analyzed by genetic pathogenic variant subclass (mtDNA vs. nDNA) utilizing a mixed model repeated measures (MMRM). In the new exploratory analysis, the effect of elamipretide on the least squares (LS) mean change from baseline in distance walked on the 6MWT at 4 weeks, 12 weeks, and end of treatment (week 24) was examined as a function of gene variants using subjects from the MMPOWER-3 per-protocol population who successfully completed the trial. The analysis evaluated 6MWT results by specific mtDNA and nDNA genotypes. Efficacy in the mtDNA replisome subgroup was further assessed by the presence of the chronic progressive external ophthalmoplegia (CPEO) as a phenotype.

[2] = test system: adult patients with primary mitochondrial myopathy (PMM); settings: elamipretide 40 mg s.c. once daily; nDNA cohort n = 59; placebo 0.3 m; p = 0.03; previously published post-hoc analysis; cited from earlier work
From the text: Baseline functional characteristics of these patients is described elsewhere. At week 24, subjects in ...

[3] = test system: subjects with Barth Syndrome; settings: after approximately 36 weeks in the 168-week open-label phase; n = 8; p = 0.02; cited from earlier work
From the text: NuPOWER was designed to evaluate the efficacy and tolerability of elamipretide in nPMD subjects, with the primary efficacy endpoint being distance walked (meters) on the 6MWT [11]. Elamipretide was also studied in subjects with Barth Syndrome (TAZPOWER, SPIBA-201, NCT03098797), which ...

[4] = test system: adult patients with primary mitochondrial myopathy (PMM); settings: post-hoc genetic subgroup analysis of the co-primary endpoint; previously published; cited from earlier work
Procedure: Elamipretide is the first experimental therapeutic compound progressing to a Phase 3 clinical trial in patients with PMM (MMPOWER-3). This trial followed the Phase 1/2 (MMPOWER-1) and Phase 2 (MMPOWER-2) clinical trials, in which treatment with elamipretide was analyzed in patients with PMM.

For elamipretide, the “6MWT change from baseline, MT-TL1 pathogenic variants” value ([1]; elamipretide 40 mg s.c. once daily, 24 weeks, n = 21, placebo (n = 28) 42.4 m) was 25.3 m, the “6MWT improvement (change from baseline), mtDNA replisome post-hoc cohort” value ([1]; elamipretide 40 mg s.c. once daily, mtDNA replisome cohort, placebo 2.0 ± 8.6 m, p = 0.06) was 25.2 ± 8.7 m and the “LS mean (SE) change from baseline in 6MWT, replisome variants with CPEO phenotype” value ([1]; elamipretide 40 mg s.c. once daily, week 24, n = 18, baseline mean 316.5 ± 17.5, placebo (n = 14) −8.0 ± 10.7 m, p = 0.0024) was 37.3 ± 9.5 m. The “LS mean (SE) change from baseline in distance walked on 6MWT, mtDNA pathogenic variants” value ([1]; elamipretide 40 mg s.c. once daily, week 24, n = 73, placebo (n = 73) 24.1 ± 6.3 m) was 14.9 ± 6.4 m, the “Between-group difference in 6MWT change, mtDNA pathogenic variants” value ([1]; week 24, elamipretide vs placebo, difference in favor of placebo) was 9.2 m and the “6MWT difference elamipretide vs placebo, single mtDNA deletions” value ([1]; week 24, n = 49) was “no observable differences”. The “6MWT improvement, nDNA cohort” value [2] was 25.2 m, the “Improvement in 6MWT, Barth Syndrome” value [3] was 95.9 m and the “PMMSA TFS, nDNA cohort compared with mtDNA cohort” value [4] was “did not demonstrate a differential effect”.
